Test results from patent publication US6355799B1, “Substituted benzene compounds, process for their preparation, and herbicidal and defoliant compositions containing them” (ISK Americas Incorporated, priority 1997, dated 2002).

Assays:
Type in all cases: in vivo
[1] = tested on: redroot pigweed (Amaranthus retroflexus, AMARE); assay: Pre-emerge test, greenhouse herbicide activity screening; details: rating scale 0-100, 14 days after application
How it was run: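 Compounds in acetone were track-sprayed at 15-1000 g ai/ha (187 l/ha) on sandy loam pots: pre-emerge one day after seeding, post-emerge at 2-3 leaf stage with 0.25% v/v non-ionic surfactant. Phytotoxicity was rated 14 days later on a 0 (no damage) to 100 (complete death) scale.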

[2] = tested on: green foxtail (Setaria viridis, SETVI); assay: as above; details: rating scale 0-100, 14 days after application
How it was run: (§1)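 Plants grown in 10 cm pots of sandy loam mix received acetone-dissolved compounds through a moving flat-fan nozzle. Doses ranged from 15 to 1000 g ai/ha. Pre-emerge pots were seeded one day earlier, post-emerge pots 8–21 days earlier. Fourteen days on, each pot was graded 0–100 for damage.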

[3] = tested on: ivyleaf morningglory (Ipomoea hederacea, IPOHE); assay: as above; details: rating scale 0-100, 14 days after application
How it was run: as §1

[4] = tested on: johnsongrass (Sorghum halepense, SORHA); assay: as above; details: rating scale 0-100, 14 days after application
How it was run: as §1

[5] = tested on: barnyardgrass (Echinochloa crus-galli, ECHCG); assay: as above; details: rating scale 0-100, 14 days after application
How it was run: as §1

[6] = tested on: large crabgrass (Digitaria sanguinalis, DIGSA); assay: as above; details: rating scale 0-100, 14 days after application
How it was run: as §1

[7] = tested on: velvetleaf (Abutilon theophrasti, ABUTH); assay: as above; details: rating scale 0-100, 14 days after application
How it was run: as §1

[8] = tested on: lambsquarters (Chenopodium album, CHEAL); assay: as above; details: rating scale 0-100, 14 days after application
How it was run: as §1

[9] = tested on: sicklepod (Cassia obtusifolia, CASOB); assay: as above; details: rating scale 0-100, 14 days after application
How it was run: as §1

[10] = tested on: green foxtail (Setaria viridis, SETVI); assay: Post-emerge test, greenhouse herbicide activity screening; details: rating scale 0-100 (0 no damage, 100 complete death), 14 days after application
How it was run: as §1

[11] = tested on: ivyleaf morningglory (Ipomoea hederacea, IPOHE); assay: as above; details: rating scale 0-100 (0 no damage, 100 complete death), 14 days after application
How it was run: as §1

[12] = tested on: johnsongrass (Sorghum halepense, SORHA); assay: as above; details: rating scale 0-100 (0 no damage, 100 complete death), 14 days after application
How it was run: as §1

[13] = tested on: barnyardgrass (Echinochloa crus-galli, ECHCG); assay: as above; details: rating scale 0-100 (0 no damage, 100 complete death), 14 days after application
How it was run: as §1

[14] = tested on: large crabgrass (Digitaria sanguinalis, DIGSA); assay: as above; details: rating scale 0-100 (0 no damage, 100 complete death), 14 days after application
How it was run: as §1

[15] = tested on: velvetleaf (Abutilon theophrasti, ABUTH); assay: as above; details: rating scale 0-100 (0 no damage, 100 complete death), 14 days after application
How it was run: as §1

[16] = tested on: redroot pigweed (Amaranthus retroflexus, AMARE); assay: as above; details: rating scale 0-100 (0 no damage, 100 complete death), 14 days after application
How it was run: as §1

[17] = tested on: lambsquarters (Chenopodium album, CHEAL); assay: as above; details: rating scale 0-100 (0 no damage, 100 complete death), 14 days after application
How it was run: as §1

[18] = tested on: sicklepod (Cassia obtusifolia, CASOB); assay: as above; details: rating scale 0-100 (0 no damage, 100 complete death), 14 days after application
How it was run: as §1

[19] = tested on: field corn (Zea mays L., var. Dekalb 535, CORN); assay: Post-emerge test, crop safety; details: rating scale 0-100 (0 no damage, 100 complete death), 14 days after application
How it was run: (§2)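 Each test used a mechanized track sprayer delivering 187 l/ha of acetone solution at 15–1000 g ai/ha. Post-emerge foliage at 2–3 leaves was treated with added 0.25% v/v non-ionic surfactant and bottom-watered only. Injury was assessed on day 14, where 100 means total kill.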

[20] = tested on: upland rice (Oryza sp., var. Tebonnet, RICE); assay: Post-emerge test, crop safety; details: rating scale 0-100 (0 no damage, 100 complete death), 14 days after application
How it was run: as §2

[21] = tested on: field corn (Zea mays L., var. Dekalb 535, CORN); assay: Pre-emerge test, crop safety; details: rating scale 0-100, 14 days after application
How it was run: as §1

[22] = tested on: upland rice (Oryza sp., var. Tebonnet, RICE); assay: Pre-emerge test, crop safety; details: rating scale 0-100, 14 days after application
How it was run: as §1

## COc1c(Cl)cc(F)c(-n2c(=O)cc(C(F)(F)F)n(C)c2=O)c1CC(Cl)C(=O)OCC(Br)CBr (single isomer, unassigned) [14-30]
[1]; 63 g ai/ha
  Pre-emerge herbicidal activity, phytotoxicity rating AMARE: 70
[1]; 250 g ai/ha
  Pre-emerge herbicidal activity, phytotoxicity rating AMARE: 100
[2]; 63 g ai/ha
  Pre-emerge herbicidal activity, phytotoxicity rating SETVI: 0
[2]; 250 g ai/ha
  Pre-emerge herbicidal activity, phytotoxicity rating SETVI: 0
[3]; 63 g ai/ha
  Pre-emerge herbicidal activity, phytotoxicity rating IPOHE: 0
[3]; 250 g ai/ha
  Pre-emerge herbicidal activity, phytotoxicity rating IPOHE: 0
[4]; 63 g ai/ha
  Pre-emerge herbicidal activity, phytotoxicity rating SORHA: 0
[4]; 250 g ai/ha
  Pre-emerge herbicidal activity, phytotoxicity rating SORHA: 0
[5]; 63 g ai/ha
  Pre-emerge herbicidal activity, phytotoxicity rating ECHCG: 0
[5]; 250 g ai/ha
  Pre-emerge herbicidal activity, phytotoxicity rating ECHCG: 0
[6]; 63 g ai/ha
  Pre-emerge herbicidal activity, phytotoxicity rating DIGSA: 0
[6]; 250 g ai/ha
  Pre-emerge herbicidal activity, phytotoxicity rating DIGSA: 90
[7]; 63 g ai/ha
  Pre-emerge herbicidal activity, phytotoxicity rating ABUTH: 0
[7]; 250 g ai/ha
  Pre-emerge herbicidal activity, phytotoxicity rating ABUTH: 50
[8]; 63 g ai/ha
  Pre-emerge herbicidal activity, phytotoxicity rating CHEAL: 0
[8]; 250 g ai/ha
  Pre-emerge herbicidal activity, phytotoxicity rating CHEAL: 80
[9]; 63 g ai/ha
  Pre-emerge herbicidal activity, phytotoxicity rating CASOB: 0
[9]; 250 g ai/ha
  Pre-emerge herbicidal activity, phytotoxicity rating CASOB: 0
[10]; Rate 63 g ai/ha
  Post-emerge Herbicidal Activity, phytotoxicity rating SETVI: 0
[10]; Rate 250 g ai/ha
  Post-emerge Herbicidal Activity, phytotoxicity rating SETVI: 30
[11]; Rate 63 g ai/ha
  Post-emerge Herbicidal Activity, phytotoxicity rating IPOHE: 0
[11]; Rate 250 g ai/ha
  Post-emerge Herbicidal Activity, phytotoxicity rating IPOHE: 50
[12]; Rate 63 g ai/ha
  Post-emerge Herbicidal Activity, phytotoxicity rating SORHA: 0
[12]; Rate 250 g ai/ha
  Post-emerge Herbicidal Activity, phytotoxicity rating SORHA: 50
[13]; Rate 63 g ai/ha
  Post-emerge Herbicidal Activity, phytotoxicity rating ECHCG: 100
[13]; Rate 250 g ai/ha
  Post-emerge Herbicidal Activity, phytotoxicity rating ECHCG: 100
[14]; Rate 63 g ai/ha
  Post-emerge Herbicidal Activity, phytotoxicity rating DIGSA: 60
[14]; Rate 250 g ai/ha
  Post-emerge Herbicidal Activity, phytotoxicity rating DIGSA: 100
[15]; Rate 63 g ai/ha
  Post-emerge Herbicidal Activity, phytotoxicity rating ABUTH: 60
[15]; Rate 250 g ai/ha
  Post-emerge Herbicidal Activity, phytotoxicity rating ABUTH: 100
[16]; Rate 63 g ai/ha
  Post-emerge Herbicidal Activity, phytotoxicity rating AMARE: 70
[16]; Rate 250 g ai/ha
  Post-emerge Herbicidal Activity, phytotoxicity rating AMARE: 100
[17]; Rate 63 g ai/ha
  Post-emerge Herbicidal Activity, phytotoxicity rating CHEAL: 50
[17]; Rate 250 g ai/ha
  Post-emerge Herbicidal Activity, phytotoxicity rating CHEAL: 100
[18]; Rate 63 g ai/ha
  Post-emerge Herbicidal Activity, phytotoxicity rating CASOB: 20
[18]; Rate 250 g ai/ha
  Post-emerge Herbicidal Activity, phytotoxicity rating CASOB: 60
[19]; Rate 63 g ai/ha
  Post-emerge phytotoxicity rating CORN (crop damage): 10
[19]; Rate 250 g ai/ha
  Post-emerge phytotoxicity rating CORN (crop damage): 20
[20]; Rate 63 g ai/ha
  Post-emerge phytotoxicity rating RICE (crop damage): 0
[20]; Rate 250 g ai/ha
  Post-emerge phytotoxicity rating RICE (crop damage): 0
[21]; 63 g ai/ha
  Pre-emerge phytotoxicity rating, crop damage CORN: 0
[21]; 250 g ai/ha
  Pre-emerge phytotoxicity rating, crop damage CORN: 0
[22]; 63 g ai/ha
  Pre-emerge phytotoxicity rating, crop damage RICE: 0
[22]; 250 g ai/ha
  Pre-emerge phytotoxicity rating, crop damage RICE: 0

## COc1c(Cl)cc(F)c(-n2c(=O)cc(C(F)(F)F)n(C)c2=O)c1CC(Cl)C(=O)OCC(Br)CBr (single isomer, unassigned) [14-31]
[1]; 63 g ai/ha
  Pre-emerge herbicidal activity, phytotoxicity rating AMARE: 70
[1]; 250 g ai/ha
  Pre-emerge herbicidal activity, phytotoxicity rating AMARE: 100
[2]; 63 g ai/ha
  Pre-emerge herbicidal activity, phytotoxicity rating SETVI: 0
[2]; 250 g ai/ha
  Pre-emerge herbicidal activity, phytotoxicity rating SETVI: 0
[3]; 63 g ai/ha
  Pre-emerge herbicidal activity, phytotoxicity rating IPOHE: 0
[3]; 250 g ai/ha
  Pre-emerge herbicidal activity, phytotoxicity rating IPOHE: 50
[4]; 63 g ai/ha
  Pre-emerge herbicidal activity, phytotoxicity rating SORHA: 0
[4]; 250 g ai/ha
  Pre-emerge herbicidal activity, phytotoxicity rating SORHA: 0
[5]; 63 g ai/ha
  Pre-emerge herbicidal activity, phytotoxicity rating ECHCG: 0
[5]; 250 g ai/ha
  Pre-emerge herbicidal activity, phytotoxicity rating ECHCG: 0
[6]; 63 g ai/ha
  Pre-emerge herbicidal activity, phytotoxicity rating DIGSA: 0
[6]; 250 g ai/ha
  Pre-emerge herbicidal activity, phytotoxicity rating DIGSA: 90
[7]; 63 g ai/ha
  Pre-emerge herbicidal activity, phytotoxicity rating ABUTH: 0
[7]; 250 g ai/ha
  Pre-emerge herbicidal activity, phytotoxicity rating ABUTH: 70
[8]; 63 g ai/ha
  Pre-emerge herbicidal activity, phytotoxicity rating CHEAL: 40
[8]; 250 g ai/ha
  Pre-emerge herbicidal activity, phytotoxicity rating CHEAL: 50
[9]; 63 g ai/ha
  Pre-emerge herbicidal activity, phytotoxicity rating CASOB: 0
[9]; 250 g ai/ha
  Pre-emerge herbicidal activity, phytotoxicity rating CASOB: 0
[10]; Rate 63 g ai/ha
  Post-emerge Herbicidal Activity, phytotoxicity rating SETVI: 0
[10]; Rate 250 g ai/ha
  Post-emerge Herbicidal Activity, phytotoxicity rating SETVI: 50
[11]; Rate 63 g ai/ha
  Post-emerge Herbicidal Activity, phytotoxicity rating IPOHE: 10
[11]; Rate 250 g ai/ha
  Post-emerge Herbicidal Activity, phytotoxicity rating IPOHE: 70
[12]; Rate 63 g ai/ha
  Post-emerge Herbicidal Activity, phytotoxicity rating SORHA: 0
[12]; Rate 250 g ai/ha
  Post-emerge Herbicidal Activity, phytotoxicity rating SORHA: 20
[13]; Rate 63 g ai/ha
  Post-emerge Herbicidal Activity, phytotoxicity rating ECHCG: 100
[13]; Rate 250 g ai/ha
  Post-emerge Herbicidal Activity, phytotoxicity rating ECHCG: 100
[14]; Rate 63 g ai/ha
  Post-emerge Herbicidal Activity, phytotoxicity rating DIGSA: 95
[14]; Rate 250 g ai/ha
  Post-emerge Herbicidal Activity, phytotoxicity rating DIGSA: 100
[15]; Rate 63 g ai/ha
  Post-emerge Herbicidal Activity, phytotoxicity rating ABUTH: 90
[15]; Rate 250 g ai/ha
  Post-emerge Herbicidal Activity, phytotoxicity rating ABUTH: 100
[16]; Rate 63 g ai/ha
  Post-emerge Herbicidal Activity, phytotoxicity rating AMARE: 90
[16]; Rate 250 g ai/ha
  Post-emerge Herbicidal Activity, phytotoxicity rating AMARE: 100
[17]; Rate 63 g ai/ha
  Post-emerge Herbicidal Activity, phytotoxicity rating CHEAL: 70
[17]; Rate 250 g ai/ha
  Post-emerge Herbicidal Activity, phytotoxicity rating CHEAL: 90
[18]; Rate 63 g ai/ha
  Post-emerge Herbicidal Activity, phytotoxicity rating CASOB: 50
[18]; Rate 250 g ai/ha
  Post-emerge Herbicidal Activity, phytotoxicity rating CASOB: 50
[19]; Rate 63 g ai/ha
  Post-emerge phytotoxicity rating CORN (crop damage): 10
[19]; Rate 250 g ai/ha
  Post-emerge phytotoxicity rating CORN (crop damage): 50
[20]; Rate 63 g ai/ha
  Post-emerge phytotoxicity rating RICE (crop damage): 0
[20]; Rate 250 g ai/ha
  Post-emerge phytotoxicity rating RICE (crop damage): 0
[21]; 63 g ai/ha
  Pre-emerge phytotoxicity rating, crop damage CORN: 0
[21]; 250 g ai/ha
  Pre-emerge phytotoxicity rating, crop damage CORN: 30
[22]; 63 g ai/ha
  Pre-emerge phytotoxicity rating, crop damage RICE: 0
[22]; 250 g ai/ha
  Pre-emerge phytotoxicity rating, crop damage RICE: 0
